Several values for one entry are separate records, joined by “and”; a condition that tells them apart may be missing. Equal values may be shown once. Read-outs that look alike come from different tables or passages of the source.
Assays:
bone marrow GM-CFU [1] = test: 5-fluorouracil-induced GM-CFU suppression in mice; conditions: for GM-CFU: harvest 48 hours after 5-FU
Protocol: The control group was not treated with either drug. Bone marrows were harvested and GM-CFUs were determined 24 hours after the final injection.
Values are the mean ± SE of three mice per point.

HT4-1 tumors = test: potentiation of melphalan toxicity in vivo, implanted HT4-1 tumors; parameters: species or system Male scid mice; conditions: group 5: 5 mg/kg melphalan + 60 mg/kg TER199, seven days; when control tumors reached 1500 mm^3
Protocol: Male scid mice were subcutaneously implanted with HT4-1 tumors from donor mice. HT4-1 is a subclone of HT-29, a human colon cancer. When tumors reached approximately 100 mm^3, the mice were randomized into six treatment groups and treated for seven days as follows: • 1. 5 mg/kg melphalan; • 2. 10 mg/kg ethacrynic acid; • 3. […] 5 mg/kg melphalan + 10 mg/kg ethacrynic acid; • 5.
The mice were monitored for weight changes and tumor volumes were determined by measurement with calipers. The tumor growth was monitored until the average tumor size reached 1500 mm^3 for all groups except melphalan with ethacrynic acid.
The results were computed in terms of the tumor volume in the drug treated mice as a percentage of control tumor volume (i.e., in the group administered vehicle alone). In group 1, administered melphalan alone, the tumors were approximately 75% of the volume of controls. […] For group 4 administered a combination of melphalan and ethacrynic acid, the volumes were approximately 35% of control. […] (The volume measurements were taken at the time control tumors reached 1500 mm^3.)

peripheral blood cells [2] = test: effect on peripheral blood counts in rats; conditions: 90 mg/kg/day x 5, i.p.
Description: Rats were divided into two groups and each group was bled on alternating days. Mean total leukocyte, absolute lymphocyte and absolute neutrophil counts increased over the study period.

interleukin-1 (IL-1) = test: stimulation of cytokine production in bone marrow stromal cell cultures; assay type: cell-based, human; conditions: 100µM TER199 for one hour
Protocol: Human stromal cell cultures were established from freshly obtained human bone marrow as described by East, C.J. et al., Blood 5:1172 (1992). […] IL-1 levels were more than twice those of controls at both 24 and 48 hour time points.

HT-29 cells = test: Cytosensor Microphysiometer acidification rates; assay type: cell-based, human; conditions: 4 hours pretreatment, TER199 20 µM, ethacrynic acid 50 µM
Protocol: The metabolic effects related to toxicity of the compounds of the invention on HT-29 cells, were tested using a Cytosensor Microphysiometer made by Molecular Devices, Inc., Menlo Park, CA and described in McConnell, H.M. et al. Science (1992) 257:1906-1912 and by Wada, H.G. et al. AATEX (1992) 1:154-164. Changes in pH of the culture medium are measured as a function of cellular metabolism. Acidification rates of the small volume of liquid flowing over the cells correlate with the number of live cells in the reaction chamber; a reduction of acidification rate reflects reduced numbers of surviving cells. […] The medium was then replaced with serum-free low buffer capacity medium and Microphysiometer analysis was initiated.

bone marrow GM-CFU [3] = test system: bone marrow GM-CFU
Protocol: Bone marrows were harvested 24 hours after cisplatin administration.
Bone marrows were harvested 24 hours after administration of the second drug.

[4] = test system: HT4-1, a subclone of HT-29; test: standard clonogenic assay, potentiation of drug toxicity, HT4-1
Protocol: Four chemotherapeutic drugs, chlorambucil, adriamycin, mitomycin C and doxorubicin were used as the toxic agents. In these assays, the cells were seeded at 300 cells/well in 2 ml of medium in 6-well plates in the presence of the compounds used in the invention as the diethyl esters. […] After incubation for 1-2 hours to permit cells to attach, varying doses of the chemotherapeutic agents were added. At least three replicate wells were plated for each test condition and the plates were incubated for two weeks. […] IC50 values were determined for the chemotherapeutic agent in the presence or absence of the compound used in the invention and dose modification factors were calculated by dividing the IC50 value of drug without the compound by the IC50 value of the drug with the compound.

[5] = test system: SKOV-3 an ovarian carcinoma; test: standard clonogenic assay, potentiation of drug toxicity, SKOV-3; assay type: cell-based; conditions: test dose not given
Protocol: ; SKOV-3 an ovarian carcinoma, and VLB, a vinblastine-resistant variant of SKOV-3. Four chemotherapeutic drugs, chlorambucil, adriamycin, mitomycin C and doxorubicin were used as the toxic agents. In these assays, the cells were seeded at 300 cells/well in 2 ml of medium in 6-well plates in the presence of the compounds used in the invention as the diethyl esters. […]. After incubation for 1-2 hours to permit cells to attach, varying doses of the chemotherapeutic agents were added. At least three replicate wells were plated for each test condition and the plates were incubated for two weeks. Colonies were fixed in 95% ethanol and stained with crystal violet for colony counting. IC50 values were determined for the chemotherapeutic agent in the presence or absence of the compound used in the invention and dose modification factors were calculated by dividing the IC50 value of drug without the compound by the IC50 value of the drug with the compound.

peripheral blood cells [6] = test: peripheral blood response to 5-FU with i.p. TER199 in rats; assay type: in vivo, Sprague-Dawley derived rats; conditions: 5-FU 150 mg/kg i.p. day one
Protocol: Sprague-Dawley derived rats were treated according to the schedule below (Table 11).

[7] = test system: normal human bone marrow multipotential (CFU-GEMM) progenitor cells; test: colony formation, human bone marrow CFU-GEMM; assay type: cell-based; conditions: EPO + 50 ng/ml SLF
Protocol: (§1) The effects are dose-dependent, usually in the range of 1.0 to 10.0 µM, and in most cases for cells stimulated by GM-CSF, G-CSF, M-CSF, Flt3/Flk-2 and Steel factor (stem cell factor/c-kit ligand). Of particular interest was the finding that TER199 enhances colony formation stimulated by combinations of cytokines. Additionally, the enhancing effect is more pronounced in human than in murine bone marrow.

[8] = in vitro half-life in human blood; assay type: in vitro ADME
[9] = test system: normal human bone marrow erythroid (BFU-E) progenitor cells; test: colony formation, human bone marrow BFU-E; assay type: cell-based
Protocol: as §1

[10] = TER199 150 mg/kg p.o. 24 hours after cisplatin 20 mg/kg i.p.
[11] = HT4-1, TER199 at 25 µM, TER183 dose not given
[12] = TER199 60 mg/kg b.i.d. or 120 mg/kg q.d. i.p. day 2-10
[13] = EPO + 50 ng/ml SLF, TER199 1.0 µM
[14] = EPO + 50 ng/ml SLF, TER199 10 µM

SMILES: CCOC(=O)[C@@H](N)CCC(=O)N[C@@H](CSCc1ccccc1)C(=O)N[C@@H](C(=O)OCC)c1ccccc1 [TER199, γE ethyl ester-C(Bz)-R-(-)-ϕG ethyl ester]
- GM-CFU counts per femur (bone marrow GM-CFU [1]; 60 mg/kg TER199 IP 24 hours after 75 mg/kg 5-FU IP): greater than control values
- number of GM-CFUs per femur compared with fluorouracil alone (bone marrow GM-CFU [1]; 60 mg/kg TER199 IP simultaneously with 75 mg/kg 5-FU IP): fourfold increase
- GM-CFU (bone marrow GM-CFU [1]; TER199 150 mg/kg p.o. 24 hours after 5-FU 75 mg/kg i.p.): 90 % of control
- GM-CFU (bone marrow GM-CFU [1]; TER199 150 mg/kg p.o. 24 hours after 5-FU 150 mg/kg i.p.): 71 % of control
- GM-CFU by day 4 after 5-FU administration (Figure 9b) (bone marrow GM-CFU [1]; TER199 IP 24 hours after 5-FU): about twice that of control
- effect on GM-CFU (Figure 9c) (bone marrow GM-CFU [1]; TER199 i.p. 24 hours prior to 5-FU): essentially no effect
- tumor volume as a percentage of control tumor volume (HT4-1 tumors): approximately 55%
- deleterious effects on the animals (peripheral blood cells [2]): did not appear to have any deleterious effects
- levels of circulating white blood cells (peripheral blood cells [2]): twofold increase
- red blood cell or platelet counts (peripheral blood cells [2]; exception: mean decrease in platelet count on day 9): no significant change
- IL-1 concentration (interleukin-1 (IL-1); 24 Hours): 323 pg/mL
- IL-1 concentration (% control) (interleukin-1 (IL-1); 24 Hours): 283 % control
- IL-1 concentration (interleukin-1 (IL-1); 48 Hours): 245 pg/mL
- IL-1 concentration (% control) (interleukin-1 (IL-1); 48 Hours): 253 % control
- effect on acidification rates, compound alone (Figure 2) (HT-29 cells; no chlorambucil): Neither γE-C(Bz)-ϕG diethylester (TER199) nor ethacrynic acid alone had any appreciable effect
- effect of pretreatment on acidification rates with chlorambucil (Figure 2) (HT-29 cells; then 100 µM chlorambucil): potentiated the effect of chlorambucil
- GM-CFUs per femur (bone marrow GM-CFU [3]; TER199 60 mg/kg i.p. 24 hours before cisplatin 15 mg/kg i.p.): 62 % of control
- GM-CFU (bone marrow GM-CFU [3]; [10]): 40%
- increase in GM-CFU versus cisplatin alone (bone marrow GM-CFU [3]; [10]): 2.5 fold
- GM-CFU (bone marrow GM-CFU [3]; TER199 150 mg/kg p.o. 24 hours before cisplatin 20 mg/kg i.p.): 52 % of control
- survival of tumor cells treated with varying dosages of chlorambucil (Figure 1a) ([4]; 25 µM compound added to chlorambucil): survival rate is markedly diminished
- DMF for Doxorubicin ([4]; HT4-1, TER199 at 25 µM): 1.20
- DMF for Adriamycin [4, 11]: 1.2
- DMF for Chlorambucil [4, 11]: 2.39
- DMF for Mitomycin C [4, 11]: 1.03
- survival of HT4-1 cells in the presence of the compound alone (Figure 1b) ([4]; HT4-1 cells): clearly toxic
- DMF for Adriamycin [5]: 1.14
- DMF for Chlorambucil [5]: 1.24
- DMF for Doxorubicin [5]: 1.14
- platelet levels (Figure 14) (peripheral blood cells [6]; [12]): recovered to normal levels by study Day 12
- white blood cell, neutrophil, and lymphocyte levels (Figure 14) (peripheral blood cells [6]; [12]): reached pretest levels sooner than the 5-FU-treated group
- red blood cell counts (Figure 14) (peripheral blood cells [6]; TER199 i.p. day 2-10, compared to 5-FU control animals): observed decrease is reduced
- Colony number ([7]; TER199 0.1 µM): 12±1 and 19±2
- Colony number ([7]; TER199 1.0 µM): 17±2 and 23±2
- % change from control ([7]; TER199 10 µM): 60% and 36%
- Colony number ([7]; TER199 10 µM): 16±1 and 30±1
- half-life [8]: ~1.5 h
- half-life, comparison of the three compounds [8]: approximately the same
- Colony number ([9]; EPO 1 U/ml, TER199 0.1 µM): 35±3 and 38±3
- Colony number ([9]; EPO 1 U/ml, TER199 1.0 µM): 60±2 and 58±1
- Colony number ([9]; EPO 1 U/ml, TER199 10 µM): 57±4 and 59±2
- Colony number ([9]; EPO + 50 ng/ml SLF, TER199 0.1 µM): 92±4 and 80±5
- % change from control [9, 13]: 22% and 35%
- Colony number [9, 13]: 107±7 and 80±3
- % change from control [9, 14]: 24% and 29%
- Colony number [9, 14]: 109±2 and 85±3

— patent EP0831877B1, “METABOLIC EFFECTS OF CERTAIN GLUTATHIONE ANALOGS” (TELIK, INC., priority 1995, dated 1996)
